Experimental data taken from patent US10435399B2, “HDAC6 inhibitory heterocyclic compound” (TAKEDA PHARMACEUTICAL COMPANY LIMITED, priority 2017, dated 2019).

Target: T1, HDAC6 enzyme (Homo sapiens, UniProt Q9UBN7)
T1 construct: transducing full length HDAC6 gene into Sf-9 insect cells; GST; purchased SignalChem; host or cells: Sf-9 insect cells
T1 sequence (Q9UBN7 1-1215): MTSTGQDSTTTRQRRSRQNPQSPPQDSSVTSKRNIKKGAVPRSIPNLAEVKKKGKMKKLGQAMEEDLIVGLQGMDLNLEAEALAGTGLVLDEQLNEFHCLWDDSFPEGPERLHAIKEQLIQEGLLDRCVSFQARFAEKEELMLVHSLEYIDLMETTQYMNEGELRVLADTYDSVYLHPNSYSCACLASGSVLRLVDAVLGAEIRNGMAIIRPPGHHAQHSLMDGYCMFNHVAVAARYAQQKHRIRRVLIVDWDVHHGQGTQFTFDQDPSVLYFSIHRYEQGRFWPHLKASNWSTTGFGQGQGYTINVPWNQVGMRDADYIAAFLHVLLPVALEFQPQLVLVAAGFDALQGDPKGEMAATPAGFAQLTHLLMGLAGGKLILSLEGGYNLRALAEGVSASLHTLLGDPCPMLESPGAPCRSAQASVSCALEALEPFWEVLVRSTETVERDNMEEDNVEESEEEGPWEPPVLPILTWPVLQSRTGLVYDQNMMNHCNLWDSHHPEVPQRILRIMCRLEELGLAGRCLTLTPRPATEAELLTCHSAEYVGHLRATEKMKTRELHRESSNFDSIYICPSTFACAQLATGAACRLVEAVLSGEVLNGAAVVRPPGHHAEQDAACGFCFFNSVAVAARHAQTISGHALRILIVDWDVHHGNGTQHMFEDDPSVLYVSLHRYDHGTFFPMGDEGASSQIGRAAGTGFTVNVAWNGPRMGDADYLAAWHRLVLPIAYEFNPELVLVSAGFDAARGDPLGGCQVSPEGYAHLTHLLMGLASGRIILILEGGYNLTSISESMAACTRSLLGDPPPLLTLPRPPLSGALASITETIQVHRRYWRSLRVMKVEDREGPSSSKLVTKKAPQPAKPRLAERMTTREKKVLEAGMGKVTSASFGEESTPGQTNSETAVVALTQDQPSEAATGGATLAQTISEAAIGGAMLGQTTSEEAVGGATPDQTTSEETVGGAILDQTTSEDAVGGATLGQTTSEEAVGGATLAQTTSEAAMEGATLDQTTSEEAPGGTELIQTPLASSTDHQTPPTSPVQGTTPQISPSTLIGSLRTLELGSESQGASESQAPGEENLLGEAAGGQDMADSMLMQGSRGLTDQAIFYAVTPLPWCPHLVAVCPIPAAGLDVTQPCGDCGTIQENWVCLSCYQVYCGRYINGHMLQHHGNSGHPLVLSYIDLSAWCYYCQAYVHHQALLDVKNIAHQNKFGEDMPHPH
Test: HDAC6 enzyme inhibitory activity (HDAC-Glo I/II Assay kit)
Format: biochemical
Conditions: 10 μM; wells without enzyme = 100% inhibition; read-out: HDAC6 inhibitory rate (%) (10 μM)
Summary of the method: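 Luminescent HDAC-Glo I/II readout after 20 min room-temperature reaction with substrate-developer, following 60 min compound–enzyme preincubation. Enzyme: full-length HDAC6 from Sf-9 cells, GST-purified; buffer 24 mM Tris-HCl pH 7.5, 0.01% Tween-20, glutathione, salts. Wells lacking enzyme define 100% inhibition.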

inhibition at 10 µM [%] | Compound
92 | O=C1c2cc(-c3nnc(C(F)F)o3)ccc2CN1C1(C(=O)NCC(F)(F)F)CC1 [Example 187, 1-(6-(5-(difluoromethyl)-1,3,4-oxadiazol-2-yl)-1-oxo-1,3-dihydro-2H-isoindol-2-yl)-N-(2,2,2-trifluoroethyl)cyclopropanecarboxamide]
98 | Cn1cc(-c2ccccc2)c(N2Cc3ccc(-c4nnc(C(F)F)o4)cc3C2=O)n1 [Example 188, 6-(5-(difluoromethyl)-1,3,4-oxadiazol-2-yl)-2-(1-methyl-4-phenyl-1H-pyrazol-3-yl)isoindolin-1-one]
100 | O=C(N[C@@H]1COCC[C@H]1N1Cc2c(F)cc(-c3nnc(C(F)F)o3)cc2C1=O)c1ccccc1Cl [Example 189, 2-chloro-N-((3S,4R)-4-(6-(5-(difluoromethyl)-1,3,4-oxadiazol-2-yl)-4-fluoro-1-oxo-1,3-dihydro-2H-isoindol-2-yl)tetrahydro-2H-pyran-3-yl)benzamide]
100 | O=C(N[C@@H]1COCC[C@H]1N1Cc2c(F)cc(-c3nnc(C(F)F)o3)cc2C1=O)c1cccc(Cl)c1 [Example 190, 3-chloro-N-((3S,4R)-4-(6-(5-(difluoromethyl)-1,3,4-oxadiazol-2-yl)-4-fluoro-1-oxo-1,3-dihydro-2H-isoindol-2-yl)tetrahydro-2H-pyran-3-yl)benzamide]
101 | CCC(=O)N[C@@H]1COCC[C@H]1N1Cc2c(F)cc(-c3nnc(C(F)F)o3)cc2C1=O [Example 191, N-((3S,4R)-4-(6-(5-(difluoromethyl)-1,3,4-oxadiazol-2-yl)-4-fluoro-1-oxo-1,3-dihydro-2H-isoindol-2-yl)tetrahydro-2H-pyran-3-yl)propanamide]
100 | CC(C)(C)OC(=O)N1CC[C@@H](N2Cc3ncc(-c4nnc(C(F)F)o4)cc3C2=O)[C@@H](c2ccccc2)C1 [Example 192, tert-butyl (3S,4R)-4-(3-(5-(difluoromethyl)-1,3,4-oxadiazol-2-yl)-5-oxo-5,7-dihydro-6H-pyrrolo[3,4-b]pyridin-6-yl)-3-phenylpiperidine-1-carboxylate]
102 | O=C1c2cc(-c3nnc(C(F)F)o3)cnc2CN1[C@@H]1CCNC[C@@H]1c1ccccc1 [Example 193, 3-(5-(difluoromethyl)-1,3,4-oxadiazol-2-yl)-6-((3S,4R)-3-phenylpiperidin-4-yl)-6,7-dihydro-5H-pyrrolo[3,4-b]pyridin-5-one]
100 | COC(=O)N1CC[C@@H](N2Cc3ncc(-c4nnc(C(F)F)o4)cc3C2=O)[C@@H](c2ccccc2)C1 [Example 194, methyl (3S,4R)-4-(3-(5-(difluoromethyl)-1,3,4-oxadiazol-2-yl)-5-oxo-5,7-dihydro-6H-pyrrolo[3,4-b]pyridin-6-yl)-3-phenylpiperidine-carboxylate]
100 | CCC(F)(F)C(=O)N[C@@H]1CCCC[C@H]1N1Cc2ncc(-c3nnc(C(F)F)o3)cc2C1=O [Example 195, N-((1R,2R)-2-(3-(5-(difluoromethyl)-1,3,4-oxadiazol-2-yl)-5-oxo-5,7-dihydro-6H-pyrrolo[3,4-b]pyridin-6-yl)cyclohexyl)-2,2-difluorobutanamide]
100 | O=C1c2cc(-c3nnc(C(F)F)o3)cnc2CN1[C@@H]1CCCC[C@H]1NC(=O)C(F)(F)C(F)(F)F [Example 196, N-((1R,2R)-2-(3-(5-(difluoromethyl)-1,3,4-oxadiazol-2-yl)-5-oxo-5,7-dihydro-6H-pyrrolo[3,4-b]pyridin-6-yl)cyclohexyl)-2,2,3,3,3-pentafluoropropanamide]
100 | O=C1c2cc(-c3nnc(C(F)F)o3)cc(F)c2CN1C[C@H]1COCCN1S(=O)(=O)C1CC1 [Example 197, 2-(((3S)-4-(cyclopropylsulfonyl)morpholin-3-yl)methyl)-6-(5-(difluoromethyl)-1,3,4-oxadiazol-2-yl)-4-fluoroisoindolin-1-one]
99 | Cc1ccc(S(=O)(=O)N2CCOC[C@@H]2CN2Cc3c(F)cc(-c4nnc(C(F)F)o4)cc3C2=O)cc1 [Example 198, 6-(5-(difluoromethyl)-1,3,4-oxadiazol-2-yl)-4-fluoro-2-(((3S)-4-((4-methylphenyl)sulfonyl)morpholin-3-yl)methyl)isoindolin-1-one]
100 | O=C1c2cc(-c3nnc(C(F)F)o3)cc(F)c2CN1C[C@H]1COCCN1S(=O)(=O)CC(F)(F)F [Example 199, 6-(5-(difluoromethyl)-1,3,4-oxadiazol-2-yl)-4-fluoro-2-(((3S)-4-((2,2,2-trifluoroethyl)sulfonyl)morpholin-3-yl)methyl)isoindolin-1-one]
100 | O=C1c2cc(-c3nnc(C(F)F)o3)cc(F)c2CN1[C@@H]1CCOC[C@H]1NC(=O)C(F)(F)C(F)(F)F [Example 200, N-((3S,4R)-4-(6-(5-(difluoromethyl)-1,3,4-oxadiazol-2-yl)-4-fluoro-1-oxo-1,3-dihydro-2H-isoindol-2-yl)tetrahydro-2H-pyran-3-yl)-2,2,3,3,3-pentafluoropropanamide]
101 | O=C1c2cc(-c3nnc(C(F)F)o3)cc(F)c2CN1[C@@H]1CCOC[C@H]1NC(=O)C1(C(F)(F)F)CC1 [Example 201, N-((3S,4R)-4-(6-(5-(difluoromethyl)-1,3,4-oxadiazol-2-yl)-4-fluoro-1-oxo-1,3-dihydro-2H-isoindol-2-yl)tetrahydro-2H-pyran-3-yl)-1-(trifluoromethyl)cyclopropanecarboxamide]
101 | CC(C)(C(=O)N[C@@H]1COCC[C@H]1N1Cc2c(F)cc(-c3nnc(C(F)F)o3)cc2C1=O)C(F)(F)F [Example 202, N-((3S,4R)-4-(6-(5-(difluoromethyl)-1,3,4-oxadiazol-2-yl)-4-fluoro-1-oxo-1,3-dihydro-2H-isoindol-2-yl)tetrahydro-2H-pyran-3-yl)-3,3,3-trifluoro-2,2-dimethylpropanamide]
100 | CCC(F)(F)C(=O)N[C@@H]1COCC[C@H]1N1Cc2c(F)cc(-c3nnc(C(F)F)o3)cc2C1=O [Example 203, N-((3S,4R)-4-(6-(5-(difluoromethyl)-1,3,4-oxadiazol-2-yl)-4-fluoro-1-oxo-1,3-dihydro-2H-isoindol-2-yl)tetrahydro-2H-pyran-3-yl)-2,2-difluorobutanamide]
100 | CCC(F)(F)C(=O)N[C@@H]1CCOC[C@H]1N1Cc2c(F)cc(-c3nnc(C(F)F)o3)cc2C1=O [Example 204]
101 | O=C1c2cc(-c3nnc(C(F)F)o3)cc(F)c2CN1[C@@H]1COCC[C@H]1NC(=O)C1(C(F)(F)F)CCC1 [Example 205, N-((3S,4R)-3-(6-(5-(difluoromethyl)-1,3,4-oxadiazol-2-yl)-4-fluoro-1-oxo-1,3-dihydro-2H-isoindol-2-yl)tetrahydro-2H-pyran-4-yl)-1-(trifluoromethyl)cyclobutanecarboxamide]
100 | Cn1ccc(-c2ccccc2N2Cc3ccc(-c4nnc(C(F)F)o4)cc3C2=O)n1 [Example 206, 6-(5-(difluoromethyl)-1,3,4-oxadiazol-2-yl)-2-(2-(1-methyl-1H-pyrazol-3-yl)phenyl)isoindolin-1-one]
100 | Cn1cc(-c2ccccc2N2Cc3ccc(-c4nnc(C(F)F)o4)cc3C2=O)cn1 [Example 207, 6-(5-(difluoromethyl)-1,3,4-oxadiazol-2-yl)-2-(2-(1-methyl-1H-pyrazol-4-yl)phenyl)isoindolin-1-one]
